Experiments:
[1] = system: human malignant mesothelioma cell line LO68; assay: MTT cytotoxicity assay, 72 h, LO68; type: cell-based; details: exposure time 72 h
[2] = system: patient-derived VMC23 cell line (epithelioid MPM); assay: MTT cytotoxicity assay, 72 h, VMC23; type: cell-based, human; details: exposure time 72 h
Description: (§1) Human malignant mesothelioma cancer cell lines JU77 and LO68 were obtained from Cell Bank Australia (Children's Medical Research Institute, Westmead, Australia). Mouse malignant mesothelioma cancer cell line AB12, human nonmalignant mesothelioma cancer cell line Met5A (mesothelial cells), mouse macrophage cell line J774 and human monocytic cell line THP-1 were obtained from American Type Culture Collection (ATCC) (Rockville, MD, USA). Human malignant mesothelioma cell lines VMC23 (epithelial), Meso82 (sarcomatous), Meso92 (biphasic), were kindly provided by Prof. Walter Berger (Medical University of Vienna). All cells except for J774 were cultured in RPMI and J774 cells were cultured in DMEM. Both types of media were supplemented with 10% FBS and 1% penicillin-streptomycin (10,000 U/mL). Cells were grown in tissue culture flasks (75 cm2 and 25 cm2, SPL Life Sciences Co., Ltd., Korea). All cell lines were grown at 37 °C in a humidified atmosphere of 95% air and 5% CO 2 and passaged when they reached 80–90% confluency. All Au stock solutions were prepared in 1% DMSO in the respected medium, ensuring that cell viability was not inhibited.
(§2) The cytotoxicity of compounds was determined using an MTT colorimetric test. The cells were harvested from culture flasks by trypsinization and seeded into Cellstar 96 -well microculture plates (Greiner Bio -One) at the seeding density of 6000 cells per well (6 × 10^4 cells/mL). After
(§3) the cells were allowed to resume exponential growth for 16 h, they were exposed to drugs at
(§4) different concentrations in media for 72 h. The drugs were diluted in a complete medium at the desired concentration added to each well (100 μL) and serially diluted in other wells. After exposure for 72 h, the media was replaced with MTT in media (5 mg/mL, 100 μL/well) and

[3] = system: murine malignant mesothelioma cell line AB12; assay: MTT cytotoxicity assay, 72 h, AB12; type: cell-based, mouse; details: exposure time 72 h
[4] = determined from retention time using RP-HPLC
[5] = system: AB12 cells phagocytosed by J774 macrophages; assay: Phagocytosis assay, flow cytometry; type: cell-based, mouse; details: AB12 treated 100 min at 5 × IC50 (72 h), 16 h with J774 macrophages
Description: page 21: incubated for an additional 50 min. Subsequently, the medium was aspirated, and the purple formazan crystals formed in viable cells were dissolved in DMSO (100 μL/well). Optical densities were measured at 570 nm using a BioTek Synergy H1 microplate and MultiskanTM SkyHigh plate readers. The quantity of viable cells was expressed in terms of treated/control (T/C) values in comparison to untreated control cells, and 50% inhibitory concentrations (IC 50) were calculated from concentration-effect curves by interpolation. An evaluation was based on means from at least three independent experiments, each comprising three […] concentration level. For macrophage analyses, the acute monocytic leukemia -derived THP-1 cell line (ATCC) was used as a model. 1 × 104 THP-1 cells were seeded per well in 96-well plates in RPMI-1640 with 10% FCS and treated for 24 h with 75 nM phorbol 12-myristate 13-acetate (PMA, Sigma- Aldrich) to induce M0 macrophage differentiation. After the differentiation period, PMA was replaced by fresh culture medium to recover for 2h. Afterwards increasing concentrations of 1G, 5A, 5B and 5G were added for a 72-h continuous drug exposure assay. In parallel, the […] were allowed to attach for 24 h. Gold compounds were added to the cells as described for the THP-1 model above. After the incubation period of 72 h, cell viability was determined by an MTT-based assay (EU4U, Biomedica) following the instructions of the manufacturer. DMSO had not impact on the cell viability at the concentrations used. Flow cytometry experiments Phagocytosis assay […] with RPMI, centrifuged (300 × g, 5 min) and labelled with CellTracker Red CMTPX Dye (0.72 μM for 5 × 10^5 cells) at 37°C for 30 minutes in 1 ml of serum -free RPMI. Following S21 page 22: centrifugation of the cells (300 × g, 5 min), 5 ml of fresh RPMI was introduced, and the cells were seeded at a density of 5 x 10^5 cells per well into Cellstar 6-well plates (Greiner Bio-One) (1 ml per well). J774 macrophages (70-80% confluence in a T75 flask) were detached by scraping, centrifuged (300 × g, 5 min). The medium was substituted with 1 ml of DMEM containing CellTracker Green CMFDA (1 μM) and the J774 macrophages were stained at 37°C for 30 minutes. Following centrifugation of the J774 macrophages (300 × g, 5 min), 5 ml of fresh DMEM was introduced, and the macrophages were seeded into a 100 cm2 petri dish (SPL Life Sciences, Korea). After 24 h, the media in AB12 cells was replaced with 1 ml of fresh […] for 100 minutes. After removing the drug-containing media, the cells were trypsinized (0.5 ml), neutralized with 1 ml of RPMI, centrifuged (300 × g, 5 min) and counted. From each sample, […] cells into 6-well plates. AB12 cells and J774 macrophages were co-incubated for 16 h at 37°C and 5% CO2, detached by scraping, centrifuged (300 × g, 5 min), and the pellets were resuspended in PBS for immediate analysis using a CytoFLEX Flow Cytometer (Beckman Coulter, USA). The percentage of phagocytosis was determined by calculating the number of double-positive macrophages (Q2) over the total number of macrophages (Q2 + Q3). […] Annexin V/PI assay AB12 cells were seeded into Cellstar 6-well plates (Greiner Bio-One) at a density of 5 × 10^5 cells/well (1 ml per well). […] The medium was removed and cells were washed with PBS (2 × 1 mL). Afterwards the cells were […] S22

[6] = system: patient-derived Meso84 cell line (sarcomatoid MPM); assay: MTT cytotoxicity assay, 72 h, Meso84; type: cell-based, human; details: exposure time 72 h
Description: as §1, §2, §3, §4

[7] = system: AB12 cells; assay: Annexin V/PI assay (necrosis), flow cytometry; type: cell-based, mouse; details: AB12, 5 × IC50 (72 h), short exposure
Description: centrifugation of the cells (300 × g, 5 min), 5 ml of fresh RPMI was introduced, and the cells were seeded at a density of 5 x 10^5 cells per well into Cellstar 6-well plates (Greiner Bio-One) (1 ml per well). J774 macrophages (70-80% confluence in a T75 flask) were detached by scraping, centrifuged (300 × g, 5 min). The medium was substituted with 1 ml of DMEM containing CellTracker Green CMFDA (1 μM) and the J774 macrophages were stained at 37°C for 30 minutes. Following centrifugation of the J774 macrophages (300 × g, 5 min), 5 ml of fresh DMEM was introduced, and the macrophages were seeded into a 100 cm2 petri dish (SPL Life Sciences, Korea). After 24 h, the media in AB12 cells was replaced with 1 ml of fresh RPMI containing compounds of interest at equipotent concentration of 5 × IC50 and incubated for 100 minutes. After removing the drug-containing media, the cells were trypsinized (0.5 ml), neutralized with 1 ml of RPMI, centrifuged (300 × g, 5 min) and counted. From each sample, 2 × 10^5 AB12 cells were seeded into Cellstar 6-well plates (Greiner Bio-One) (1 ml per well).
2 × 10^5 J774 macrophages were detached from a petri dish by scraping and added to AB12 cells into 6-well plates. AB12 cells and J774 macrophages were co-incubated for 16 h at 37°C and 5% CO2, detached by scraping, centrifuged (300 × g, 5 min), and the pellets were resuspended in PBS for immediate analysis using a CytoFLEX Flow Cytometer (Beckman Coulter, USA). The percentage of phagocytosis was determined by calculating the number of double-positive macrophages (Q2) over the total number of macrophages (Q2 + Q3). Dot plots […]
analysis of the flow cytometry data. […]
concentrations for 100 min at 37 °C. […] Cell death was evaluated by flow cytometry using a CytoFLEX Flow Cytometer equipped with a 488 nm laser and a 638 nm laser (Beckman Coulter, Brea, CA, USA). The cells were excited by the 488 nm laser, and fluorescence emissions were detected at 525/40 nm for FITC (Annexin V) and at 610/20 nm for ECD (PI).
The percentage of necrosis was determined by calculating the sum of cells in Q1 and Q2. […]

[8] = system: human malignant mesothelioma cell line JU77; assay: MTT cytotoxicity assay, 72 h, JU77; type: cell-based; details: exposure time 72 h
[9] = system: human nonmalignant mesothelioma cell line Met5A; assay: MTT cytotoxicity assay, 72 h, Met5A; type: cell-based; details: exposure time 72 h
Description: Cell lines and culture conditions
(§5) Mouse malignant mesothelioma cancer cell line AB12, human nonmalignant mesothelioma cancer cell line Met5A (mesothelial cells), mouse macrophage cell line J774 and human monocytic cell line THP-1 were obtained from American Type Culture Collection (ATCC) (Rockville, MD, USA). Human malignant mesothelioma cell lines VMC23 (epithelial), Meso82 (sarcomatous), Meso92 (biphasic), were kindly provided by Prof. Walter Berger (Medical University of Vienna). All cells except for J774 were cultured in RPMI and J774 cells were cultured in DMEM. Both types of media were supplemented with 10% FBS and 1% penicillin-streptomycin (10,000 U/mL). Cells were grown in tissue culture flasks (75 cm2 and 25 cm2, SPL Life Sciences Co., Ltd., Korea). All cell lines were grown at 37 °C in a humidified atmosphere of 95% air and 5% CO 2 and passaged when they reached 80–90% confluency. All Au stock solutions were prepared in 1% DMSO in the respected medium, ensuring that cell viability was not inhibited. The Au concentration in the stock solutions was confirmed through inductively coupled plasma optical emission spectrometry. The stock solution of pemetrexed (10 mM) was prepared in Milli -Q water.
Inhibition of c ell viability assay
as §2, §3, §4

[10] = system: patient-derived Meso92 cell line (biphasic MPM); assay: MTT cytotoxicity assay, 72 h, Meso92; type: cell-based, human; details: exposure time 72 h
Description: Cell lines and culture conditions
as §5
Inhibition of c ell viability assay
as §2, §3, §4

[11] = system: M0-differentiated THP-1 cells; assay: MTT-based viability assay on M0-differentiated THP-1 cells, 72 h; type: cell-based, human; details: 72-h exposure, compared with AB12 cells
Description: incubated for an additional 50 min. Subsequently, the medium was aspirated, and the purple formazan crystals formed in viable cells were dissolved in DMSO (100 μL/well). Optical densities were measured at 570 nm using a BioTek Synergy H1 microplate and MultiskanTM SkyHigh plate readers. The quantity of viable cells was expressed in terms of treated/control (T/C) values in comparison to untreated control cells, and 50% inhibitory concentrations (IC 50) were calculated from concentration-effect curves by interpolation. An evaluation was based on means from at least three independent experiments, each comprising three replicat es per […]
For macrophage analyses, the acute monocytic leukemia -derived THP-1 cell line (ATCC) was used as a model. 1 × 104 THP-1 cells were seeded per well in 96-well plates in RPMI-1640 with 10% FCS and treated for 24 h with 75 nM phorbol 12-myristate 13-acetate (PMA, Sigma-Aldrich) to induce M0 macrophage differentiation. After the differentiation period, PMA was replaced by fresh culture medium to recover for 2h. Afterwards increasing concentrations of 1G, 5A, 5B and 5G were added for a 72-h continuous drug exposure assay. In parallel, the murine mesothelioma cell line AB12 was seeded into 96 -well plates at 2.5 × 10^3 cells/well and were allowed to attach for 24 h. Gold compounds were added to the cells as described for the THP-1 model above. After the incubation period of 72 h, cell viability was determined by an MTT-based assay (EU4U, Biomedica) following the instructions of the manufacturer. DMSO had not impact on the cell viability at the concentrations used. […]

[12] = system: AB12 cells in BALB/c mice; assay: In vivo vaccination model; parameters: species or system mouse; details: within the first 30 days after vaccination, n = 8
Description: Initially, AB12 cells underwent pretreatment with varying concentrations of Au(III) complexes, and the induced cell death and release of desired ICD biomarkers were monitored over time. Upon reaching a cell death rate of 65%–75%, BALB/c mice (n = 8) were subcutaneously injected in the left flank with a vaccine containing 3 × 10^5 of live/dying/dead cells, while the vehicle group received injections of PBS. Seven days postvaccine administration, the immunized mice were rechallenged by inoculating the same number of live AB12 cells (without any prior treatment) into the right flanks (Figure 5A). The progression of tumor growth on the right flanks was monitored using a caliper.
AB12 cells were seeded into Cellstar 24-well plates (Greiner Bio-One) at a density of 1.8 × 104
cells/ml (1 ml per well) and allowed to grow exponentially for 16 hours. Subsequently, the
medium was replaced with 1 ml of fresh medium containing compounds of interest at
predetermined concentrations (with a minimum of 4 wells per treatment condition). These
concentrations were selected to induce 65-75% cell death.
Subsequently, the culture
medium was aspirated, and the cells were washed twice with 1 mL of PBS. The cell
concentration was adjusted to 3 × 10^5 cells (including dead/dying/live cells) per 100 μL of PBS,
and the ratio of dead/live cells was assessed using the Invitrogen Countess 3 cell counter. In
the subsequent experiment, BALB/c mice (8 mice per group) were subcutaneously injected
with 0.1 mL of AB12 cells (3 × 10^5 cells/mL, including dead/dying/live cells) or the
corresponding vehicle (PBS) on the left flank. Tumor growth was monitored daily.
After 7 days, the mice were subcutaneously injected with
0.1 mL of AB12 cells (3 × 10^5 cells/mL, live cells) on the right flank. Regular measurements
of body weights and tumor sizes were taken. Mice that developed palpable tumors were
euthanized for further analysis.

`F[P-](F)(F)(F)(F)F.c1cc[c]2c(c1)-c1cccc[n+]1[Au-]21[S]C(=[N+]2CCCCC2)[S]1` (centres unmarked) [1H] showed an IC50 [1] of 370 ± 100 nM, an IC50 [2] of 1400 ± 100 nM and an IC50 [3] of 91 ± 18 nM. The LogP [4] was 2.45, the “phagocytosis / ICD response (in words)” value [5] was “high levels of phagocytosis” and the IC50 [6] was 700 ± 90 nM. The “necrotic cell death (in words)” value [7] was “did not result in significant necrotic cell death”, the IC50 [8] was 620 ± 120 nM and the IC50 [9] was 130 ± 30 nM. It also gave an IC50 [10] of 1100 ± 100 nM.
`F[P-](F)(F)(F)(F)F.c1cc[c]2c(c1)Cc1cccc[n+]1[Au-]21[S]C(=[N+]2CCCCC2)[S]1` (centres unmarked) [2H] showed an IC50 [1] of 1900 ± 300 nM, an IC50 [2] of 8400 ± 1300 nM and an IC50 [3] of 310 ± 80 nM. The LogP [4] was 2.56, the IC50 [6] was 300 ± 70 nM and the IC50 [8] was 2000 ± 500 nM. For the same compound, the IC50 [9] was 2200 ± 500 nM and the IC50 [10] was 5200 ± 1200 nM.
With `F[P-](F)(F)(F)(F)F.c1cc[c]2c(c1)-c1cccc[n+]1[Au-]21[S]C(=[N+]2CCCCCC2)[S]1` (centres unmarked) [1G] the IC50 [1] was 500 ± 120 nM, the IC50 [2] was 720 ± 140 nM and the IC50 [3] was 1100 ± 100 nM. The IC50 [6] was 500 ± 40 nM, the IC50 [8] was 220 ± 30 nM and the IC50 [9] was 430 ± 90 nM. For the same compound, the IC50 [10] was 1400 ± 200 nM and the “sensitivity of THP-1-derived macrophages” value [11] was “highly sensitive”.
`CCCC[N+](CCCC)=C1[S][Au-]2([S]1)[c]1ccccc1Nc1cccc[n+]12.F[P-](F)(F)(F)(F)F` (centres unmarked) [5C] gave an IC50 [1] of 360 ± 70 nM, an IC50 [2] of 640 ± 140 nM and an IC50 [3] of 130 ± 30 nM. For the same compound, the “mice that developed tumors after vaccination” value [12] was “≈ 50%”, the phagocytosis rate [5] was 35% ± 9% and the IC50 [6] was 180 ± 30 nM. The IC50 [8] was 86 ± 22 nM, the IC50 [9] was 65 ± 15 nM and the IC50 [10] was 410 ± 60 nM.
In the case of `COC1c2cccc[c]2[Au-]2([S]C(=[N+](Cc3ccccc3)Cc3ccccc3)[S]2)[n+]2ccccc21.F[P-](F)(F)(F)(F)F` (racemic) [4D], the IC50 [1] is reported as 2300 ± 600 nM, the IC50 [2] is reported as 4200 ± 700 nM and the IC50 [3] is reported as 2300 ± 100 nM. For the same compound, the phagocytosis rate [5] was 35% ± 9%, the IC50 [6] was 2900 ± 700 nM and the IC50 [8] was 1700 ± 200 nM. The IC50 [9] was 3200 ± 300 nM and the IC50 [10] was 4100 ± 900 nM.
`CC[N+](CC)=C1[S][Au-]2([S]1)[c]1ccccc1Nc1cccc[n+]12.F[P-](F)(F)(F)(F)F` (centres unmarked) [5B] showed an IC50 [1] of 240 ± 20 nM, an IC50 [2] of 300 ± 90 nM and an IC50 [3] of 53 ± 2 nM. It also gave an IC50 [6] of 63 ± 19 nM, an IC50 [8] of 190 ± 50 nM and an IC50 [9] of 180 ± 50 nM. For the same compound, the IC50 [10] was 210 ± 60 nM and the “sensitivity of THP-1-derived macrophages” value [11] was “highly sensitive”.
With `F[P-](F)(F)(F)(F)F.c1ccc(C[N+](Cc2ccccc2)=C2[S][Au-]3([S]2)[c]2ccccc2Cc2cccc[n+]23)cc1` (centres unmarked) [2D] the IC50 [1] was 2200 ± 400 nM, the IC50 [2] was 2400 ± 500 nM and the IC50 [3] was 3900 ± 500 nM. The “phagocytosis / ICD response (in words)” value [5] was “high levels of phagocytosis”, the IC50 [6] was 3000 ± 300 nM and the “necrotic cell death (in words)” value [7] was “did not result in significant necrotic cell death”. The IC50 [8] was 2300 ± 700 nM, the IC50 [9] was 2500 ± 400 nM and the IC50 [10] was 5400 ± 1300 nM.
`COC1c2cccc[c]2[Au-]2([S]C(=[N+]3CCCCC3)[S]2)[n+]2ccccc21.F[P-](F)(F)(F)(F)F` (racemic) [4H] gave an IC50 [1] of 2500 ± 100 nM, an IC50 [2] of 2800 ± 300 nM and an IC50 [3] of 220 ± 30 nM. It also gave a LogP [4] of 2.33, an IC50 [6] of 330 ± 80 nM and an IC50 [8] of 2400 ± 200 nM. For the same compound, the IC50 [9] was 680 ± 140 nM and the IC50 [10] was 1700 ± 300 nM.

Reference: article PMC11887451, “Leveraging Immunogenic Cell Death to Enhance the Immune Response against Malignant Pleural Mesothelioma Tumors” (Journal of the American Chemical Society, 2025)
